The source made the active and inactive calls.
Legend:
[1] = biological target: T1, High affinity choline transporter 1 (Homo sapiens, UniProt Q9GZV3); assay: human choline transporter blockers, potency – cell-based, 5-point CRC, membrane potential dye, dose response (AID 504840); format: functional
T1 sequence (Q9GZV3 whole entry): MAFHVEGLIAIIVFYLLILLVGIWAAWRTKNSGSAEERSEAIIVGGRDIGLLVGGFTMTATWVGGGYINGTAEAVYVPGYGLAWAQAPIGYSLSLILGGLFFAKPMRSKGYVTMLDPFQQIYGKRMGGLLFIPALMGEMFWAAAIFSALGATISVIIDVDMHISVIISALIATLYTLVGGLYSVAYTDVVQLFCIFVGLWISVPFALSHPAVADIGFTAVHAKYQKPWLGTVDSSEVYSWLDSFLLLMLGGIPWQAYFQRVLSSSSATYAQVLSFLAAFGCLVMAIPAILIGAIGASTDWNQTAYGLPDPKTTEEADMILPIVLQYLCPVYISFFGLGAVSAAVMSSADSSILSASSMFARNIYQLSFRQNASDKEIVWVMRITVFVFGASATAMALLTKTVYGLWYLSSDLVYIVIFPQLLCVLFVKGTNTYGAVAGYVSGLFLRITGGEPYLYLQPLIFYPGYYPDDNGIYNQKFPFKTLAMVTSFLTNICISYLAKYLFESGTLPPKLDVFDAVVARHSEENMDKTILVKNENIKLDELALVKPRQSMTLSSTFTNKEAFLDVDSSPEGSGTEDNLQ

[2] = decrease of insulin promoter-GFP reporter – imaging, high-content screening, mouse beta cells (AID 1628); format: functional; conditions: MIN6
[3] = microbe, parasite or virus in culture; format: functional; conditions: Mycobacterium tuberculosis
[4] = MIN6 cell viability loss – mouse insulinoma, cytotoxicity control, dose response (AID 2122); format: functional;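 also: confirmatory high-throughput counterscreen run to flag cytotoxic compounds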
Leucine aminopeptidase = biological target: T2, Leucine aminopeptidase (Plasmodium falciparum 3D7, UniProt Q8IL11); assay: P. falciparum M17LAP inhibitors, primary screen, biochemical, fluorogenic H-Leu-NHMec substrate, 1536-well (AID 1619); format: functional
T2 sequence (Q8IL11 whole entry): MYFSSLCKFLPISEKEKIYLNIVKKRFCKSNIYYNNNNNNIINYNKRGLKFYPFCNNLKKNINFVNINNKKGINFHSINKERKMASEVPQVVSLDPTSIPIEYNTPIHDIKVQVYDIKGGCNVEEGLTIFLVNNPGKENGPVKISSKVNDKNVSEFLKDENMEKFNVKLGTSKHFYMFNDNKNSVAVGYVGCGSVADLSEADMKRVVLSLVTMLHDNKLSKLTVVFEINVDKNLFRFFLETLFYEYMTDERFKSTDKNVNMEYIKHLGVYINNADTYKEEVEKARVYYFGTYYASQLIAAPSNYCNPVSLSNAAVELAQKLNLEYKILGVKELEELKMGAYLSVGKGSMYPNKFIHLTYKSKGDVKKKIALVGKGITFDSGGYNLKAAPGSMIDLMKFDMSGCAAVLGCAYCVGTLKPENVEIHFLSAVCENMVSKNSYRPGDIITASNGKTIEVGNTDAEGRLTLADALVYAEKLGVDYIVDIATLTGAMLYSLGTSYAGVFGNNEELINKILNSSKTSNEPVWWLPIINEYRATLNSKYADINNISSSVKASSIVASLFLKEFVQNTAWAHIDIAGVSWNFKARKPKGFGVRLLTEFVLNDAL

[5] = biological target: T3, Short transient receptor potential channel 4 (Mus musculus, UniProt Q9QUQ5); assay: calcium entry via TRPC4 opening agents – cell-based, HEK293 TRPC4/mu-opioid, Fluo-4 calcium, dose response (AID 434937); format: functional
T3 sequence (Q9QUQ5 whole entry): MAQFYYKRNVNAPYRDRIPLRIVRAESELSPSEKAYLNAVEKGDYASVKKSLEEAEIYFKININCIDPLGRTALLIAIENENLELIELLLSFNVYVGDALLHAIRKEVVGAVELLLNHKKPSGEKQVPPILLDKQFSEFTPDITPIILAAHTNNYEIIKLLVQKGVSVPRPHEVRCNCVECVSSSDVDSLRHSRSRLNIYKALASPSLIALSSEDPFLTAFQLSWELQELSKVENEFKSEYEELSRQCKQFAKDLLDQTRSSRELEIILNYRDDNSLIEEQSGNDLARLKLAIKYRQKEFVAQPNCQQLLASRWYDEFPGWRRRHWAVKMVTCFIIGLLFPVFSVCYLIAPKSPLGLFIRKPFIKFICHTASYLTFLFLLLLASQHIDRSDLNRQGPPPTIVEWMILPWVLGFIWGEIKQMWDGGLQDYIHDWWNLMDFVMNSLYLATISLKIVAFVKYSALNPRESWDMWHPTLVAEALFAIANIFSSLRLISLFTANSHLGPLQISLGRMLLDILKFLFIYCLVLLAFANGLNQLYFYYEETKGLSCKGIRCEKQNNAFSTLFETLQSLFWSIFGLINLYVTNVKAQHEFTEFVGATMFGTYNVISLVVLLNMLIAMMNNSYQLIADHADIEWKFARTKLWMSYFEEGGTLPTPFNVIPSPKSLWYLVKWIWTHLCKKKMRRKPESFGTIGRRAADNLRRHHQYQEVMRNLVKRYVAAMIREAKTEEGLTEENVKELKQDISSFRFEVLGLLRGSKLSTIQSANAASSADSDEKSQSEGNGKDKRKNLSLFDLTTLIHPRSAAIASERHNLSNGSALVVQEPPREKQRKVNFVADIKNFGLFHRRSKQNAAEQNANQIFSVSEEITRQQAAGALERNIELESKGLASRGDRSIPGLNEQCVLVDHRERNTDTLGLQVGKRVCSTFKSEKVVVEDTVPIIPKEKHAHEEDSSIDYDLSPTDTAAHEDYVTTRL

[6] = loss of viability in HepG2 cells – cell-based, CellTiter-Glo, cherry-picked, cytotoxicity control for Shn3 inhibitor project, dose response (AID 624134); format: functional
[7] = biological target: Luciferin 4-monooxygenase (Photinus pyralis, UniProt P08659); assay: inhibition of purified Photinus pyralis luciferase – biochemical, luminescence, dose response (AID 1891)
HEK293 = assay: EBV LMP1 TES2 canonical NF-kB signalling blockers – cell-based, HEK293, luciferase, cherry-pick, dose response (AID 588343); format: functional; conditions: Homo sapiens
[8] = non-specific 3'UTR reporter inhibition in Clone20-Shn3RL – cell-based, Renilla luciferase, cherry-picked, counter-screen for Shn3 inhibitor project, dose response (AID 624133); format: functional
[9] = reduction of Shn3 3'UTR-driven luciferase in osteoblasts – cell-based, Clone20 osteoblasts, firefly luciferase, cherry-picked, dose response (AID 624132); format: functional;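 also: firefly luciferase luminescence from reporter carrying the Shn3 3'UTR in osteoblasts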
[10] = Luminescence Cell-Based Dose Confirmation HTS to Identify Inhibitors of Platelet Dense Granule Release. [Related pubchem assays: 1663 (Primary HTS), 1678 (Summary of Project)]; format: functional

Luciferin 4-monooxygenase, sequence (P08659 whole entry): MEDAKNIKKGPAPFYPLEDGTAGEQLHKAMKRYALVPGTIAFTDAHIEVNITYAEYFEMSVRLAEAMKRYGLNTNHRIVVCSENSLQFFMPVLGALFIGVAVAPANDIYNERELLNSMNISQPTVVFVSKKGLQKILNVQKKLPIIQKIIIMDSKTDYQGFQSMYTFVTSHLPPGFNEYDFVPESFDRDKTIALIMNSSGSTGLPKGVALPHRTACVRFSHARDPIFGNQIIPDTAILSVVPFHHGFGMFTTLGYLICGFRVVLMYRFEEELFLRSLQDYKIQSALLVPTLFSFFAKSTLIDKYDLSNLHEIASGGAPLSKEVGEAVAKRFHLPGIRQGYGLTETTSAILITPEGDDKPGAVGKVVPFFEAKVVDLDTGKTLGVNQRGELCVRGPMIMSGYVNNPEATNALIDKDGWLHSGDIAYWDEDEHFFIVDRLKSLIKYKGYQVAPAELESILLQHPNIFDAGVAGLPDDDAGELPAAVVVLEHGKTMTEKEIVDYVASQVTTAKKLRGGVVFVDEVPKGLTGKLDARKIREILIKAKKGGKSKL

Compound | IC50 [1] | IC50 [2] | CC50 [3] | IC50 [4] | IC50 (Leucine aminopeptidase) | EC50 [5] | AC50 [6] | EC50 [7] | AC50 (HEK293) | AC50 [8] | AC50 [9] | EC50 [10]
Brc1ccc2c(c1)C(OC1CN3CCC1CC3)c1ccccc1CS2 (configuration not stated) | 16 µM (active) | 2.34 µM (active) | 13.1 µM (active) | 2.13 µM (active) | – | – | – | – | – | – | – | –
Cc1ccccc1C(=O)NNC(=S)NC(=O)c1ccccc1 | 12.6 µM (active) | – | – | – | 91.2 µM (active) | 2.11 µM (active) | – | – | – | – | – | –
Cn1c(=O)c2c(nc(NCc3ccco3)n2C/C=C/c2ccccc2)n(C)c1=O | – | 0.41 µM (active) | – | < 0.25 µM (active) | – | – | 4.24 µM (active) | > 112 µM (not active) | 4.38 µM (active) | 1.13 µM (active) | 1.08 µM (active) | 30 µM (active)
CCc1ccc2c(c1)CCCN2C(=O)c1ccccc1C(=O)O | – | 1.56 µM (active) | – | 0.994 µM (active) | – | – | – | – | – | – | – | –
